For the experiment, the target named is T1, HDAC6 (Homo sapiens, UniProt Q9UBN7).
T1 sequence (Q9UBN7 1-1215): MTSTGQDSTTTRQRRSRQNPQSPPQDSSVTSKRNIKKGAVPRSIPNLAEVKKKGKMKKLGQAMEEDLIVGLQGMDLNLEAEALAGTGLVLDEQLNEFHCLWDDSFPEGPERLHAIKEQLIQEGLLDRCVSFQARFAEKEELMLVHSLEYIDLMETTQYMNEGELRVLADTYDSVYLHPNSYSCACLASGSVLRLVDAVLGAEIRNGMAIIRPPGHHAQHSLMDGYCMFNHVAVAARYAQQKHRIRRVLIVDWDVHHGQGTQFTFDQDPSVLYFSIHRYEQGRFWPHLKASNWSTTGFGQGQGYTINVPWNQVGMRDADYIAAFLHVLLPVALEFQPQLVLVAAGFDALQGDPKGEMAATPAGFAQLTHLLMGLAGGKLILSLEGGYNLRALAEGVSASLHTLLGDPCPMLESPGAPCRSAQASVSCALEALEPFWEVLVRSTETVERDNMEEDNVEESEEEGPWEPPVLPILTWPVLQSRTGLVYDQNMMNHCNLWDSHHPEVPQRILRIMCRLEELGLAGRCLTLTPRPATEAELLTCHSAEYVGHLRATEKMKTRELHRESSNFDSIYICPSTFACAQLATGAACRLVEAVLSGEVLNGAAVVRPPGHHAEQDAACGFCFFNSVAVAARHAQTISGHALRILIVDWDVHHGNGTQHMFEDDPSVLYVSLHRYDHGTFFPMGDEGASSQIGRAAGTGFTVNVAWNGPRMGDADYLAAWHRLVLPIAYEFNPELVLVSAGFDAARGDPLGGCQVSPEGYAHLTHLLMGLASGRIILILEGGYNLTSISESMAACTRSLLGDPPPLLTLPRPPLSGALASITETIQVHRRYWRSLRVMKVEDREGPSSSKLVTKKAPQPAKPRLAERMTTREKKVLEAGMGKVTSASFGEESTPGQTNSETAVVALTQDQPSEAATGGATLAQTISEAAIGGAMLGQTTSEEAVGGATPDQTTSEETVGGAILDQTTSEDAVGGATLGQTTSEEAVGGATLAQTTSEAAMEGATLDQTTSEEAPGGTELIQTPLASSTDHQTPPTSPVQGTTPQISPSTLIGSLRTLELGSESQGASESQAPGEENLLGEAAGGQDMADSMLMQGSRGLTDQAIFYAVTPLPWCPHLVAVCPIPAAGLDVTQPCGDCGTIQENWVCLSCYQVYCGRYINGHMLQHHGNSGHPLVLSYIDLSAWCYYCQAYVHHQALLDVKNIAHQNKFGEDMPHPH
In words: Immunoblot HDAC6 degradation in MM.1S cell lysates. Type of experiment: cell-based. More on the design: endogenous in cells; host or cells: MM.1S. The settings on record: MM1.S, MM.1S cells, 24 h, read-out: maximal degradation (Dmax) HDAC6. The protocol:
Figure 6 Examination of HDAC isoform degradation. MM.1S cells were treated with the indicated compounds (10 μM) or vehicle (DMSO) for 24 h. HDAC1, 2, 4, and 6 levels were analyzed by immunoblotting. (A) Representative images from a total of n=3 biological replicates.
2.5. Aqueous Stability Assay
For stability testing in aqueous solution, a 10-fold concentrated DMSO solution of the respective compounds was diluted in DPBS to generate a 10 µM concentration (final DMSO content of 10%).
Samples of the aqueous solutions were taken after 0, 24, 48, and 72 h at room temperature and the amounts of the parental compound and potential fragments were monitored by HPLC gradient A (see 3.1 General Information). The peak area of the 0 h sample was used for normalization. All compounds were tested in duplicates and GraphPad Prim was used for evaluation and data visualization.
The cell lysis was performed as descripted in 3.2. Simple Western Immunoassay. Samples were denatured by Laemmli 2× Concentrate (Catalog# S3401-10VL, Sigma-Aldrich) for 5 min at 95 °C, and […]
Bio-Rad, Hercules, CA, USA). […]
6.1 (Bio-Rad) for quantification. […]
In vitro inhibitory activities against HDAC1, 2 , and 6 were measured using a previously published protocol.[3] In vitro inhibitory activities against HDAC4 were measured using a previously published protocol with slight modifications. […]
For orientation: Immunoblotting shows a protein as a band on a membrane.

SMILES strings stand for the structures.

Broadly, the Dmax is the greatest extent of degradation seen. On to `O=C(CCCCCCNC(=O)c1ccc(NC(=O)CCCCCCCCCCCN(C(=O)CCl)C(C(=O)NCc2ccccc2)c2ccc(Cl)c(Cl)c2)cc1)NO` (centres unmarked) [Compound 1j], for which the Dmax at 10 µM lay within 71 to 76%.

As to `O=C(CCCCCCNC(=O)c1ccc(N(C(=O)CCl)C(C(=O)NCc2ccccc2)c2ccc(Cl)c(Cl)c2)cc1)NO` (centres unmarked) [Compound 2], the greatest degradation seen (Dmax) at 10 µM was determined as 26%.

For the origin of these results see paper PMC12091851, “Replacing a Cereblon Ligand by a DDB1 and CUL4 Associated Factor 11 (DCAF11) Recruiter Converts a Selective Histone Deacetylase 6 PROTAC into a Pan‐Degrader” (Chemmedchem, 2025).
